The results in this text go back to the OligoGym collection.

Values joined by “and” are separate entries in the source; they are usually repeats but may differ in a detail not shown here. Equal entries are not always repeated. After the bases stand the sugars from the 5' end (letter, count) and the backbone: PS all phosphorothioate, else s phosphorothioate and o phosphodiester by linkage. Methylation of C is not given here. k = constrained ethyl (cEt); d = 2'-deoxy (DNA)

This data set concerns the target MALAT1. The note with it: ASO, A431, 0.005 µM.
For CTAAAAGCATTGCCCT (sugars k3 d10 k3, PS), the target mRNA inhibition is 35%.
With CTAAGAGACATTCAAG (sugars k3 d10 k3, PS) the figure was 27%.
With CTACAACACCCGGAAA (sugars k3 d10 k3, PS) the figure was 33%.
For CTACAAGTTACATGTT (sugars k3 d10 k3, PS) the value was -9%; for CTACAGACAAACACTA (sugars k3 d10 k3, PS), 6%.
Regarding CTACTCTTCTAAGTCT (sugars k3 d10 k3, PS), the target mRNA inhibition came out at 49%.
With CTAGATTCACTGAATC (sugars k3 d10 k3, PS) the figure was 7%.
For CTATACTTCTCCAATA (sugars k3 d10 k3, PS) the value was -13%; for CTATTCTTTTCTTCGC (sugars k3 d10 k3, PS), 37%.
With CTCACGGATTTTTACC (sugars k3 d10 k3, PS) the figure was 7%; with CTCAGGGTTATGCTTA (sugars k3 d10 k3, PS), 40%; with CTCAGTCCTAGCTTCA (sugars k3 d10 k3, PS), 42%.
With CTCCAGCATAAAGCTG (sugars k3 d10 k3, PS), the target mRNA inhibition came out at 12%.
With CTCCCCCCCGCCTCAG (sugars k3 d10 k3, PS) the figure was 12%; with CTCGATGGAAAAATTT (sugars k3 d10 k3, PS), 8%.
For CTCGGGCTGCAGGCTG (sugars k3 d10 k3, PS) the value was 19%; for CTCTAATCACTGTCAA (sugars k3 d10 k3, PS), 11%; for CTCTGATCTGCGGCCC (sugars k3 d10 k3, PS), -6%.
With CTGAAAGAACTAGTGG (sugars k3 d10 k3, PS) the figure was 20%.
Turning to CTGAAATCCCCTAGGG (sugars k3 d10 k3, PS), the target mRNA inhibition turned out to be 30%.
With CTGAAGAGCATTGGAG (sugars k3 d10 k3, PS) the figure was 50%.
For CTGAAGTCAAGACAAC (sugars k3 d10 k3, PS) the value was -17%; for CTGATTCTAACAGCAC (sugars k3 d10 k3, PS), 55% and 49% and 50%.
With CTGATTTTAAGGTTGC (sugars k3 d10 k3, PS) the figure was 80% and 86%; with CTGCGCTTAAGAGGGC (sugars k3 d10 k3, PS), 34%.
For CTGCTCGCCTCCTCCG (sugars k3 d10 k3, PS), the target mRNA inhibition was determined as 16%.
For the sequence CTGGAAAAGCTAGGGA (sugars k3 d10 k3, PS), the target mRNA inhibition was -13%.
With CTGTAAACCTGTGGTG (sugars k3 d10 k3, PS) the figure was 15%.
For the sequence CTGTGGTGGTCTGATT (sugars k3 d10 k3, PS), the target mRNA inhibition was 33%.
As to CTGTGGTTTTAATACC (sugars k3 d10 k3, PS), the target mRNA inhibition was 51%.
With CTGTGTTATGCCTGGT (sugars k3 d10 k3, PS) the figure was -3%; with CTTAAGAGGGCAGGAG (sugars k3 d10 k3, PS), -4%; with CTTATCCCTAACATGC (sugars k3 d10 k3, PS), 41%.
For CTTATTTAGAGGGCCT (sugars k3 d10 k3, PS) the value was 36%.
With CTTCAACAATCACTAC (sugars k3 d10 k3, PS) the figure was 2%.
As for CTTCAACTGGGAATAC (sugars k3 d10 k3, PS), the target mRNA inhibition was 7%.
For CTTCAAGCACCGCTTG (sugars k3 d10 k3, PS) the value was 21% and 28%; for CTTCACCACGAACTGC (sugars k3 d10 k3, PS), 43%; for CTTCATGACCCTACTG (sugars k3 d10 k3, PS), 36%.
For CTTCATTACCCCAACT (sugars k3 d10 k3, PS) the value was 14%; for CTTCGGTGCCTTTAGT (sugars k3 d10 k3, PS), 23%.
For CTTCGGTTTAATCTCT (sugars k3 d10 k3, PS) the value was 73% and 54%; for CTTCTATAGTCTGAAG (sugars k3 d10 k3, PS), 18%; for CTTCTATTGGTATTAA (sugars k3 d10 k3, PS), 18%.
With CTTCTGAACCGGAGCA (sugars k3 d10 k3, PS), the target mRNA inhibition was -27%.
With CTTGAAGACTGTTGCT (sugars k3 d10 k3, PS) the figure was 42%.
For CTTGAGATTTGGGCTT (sugars k3 d10 k3, PS) the value was 12% and 2%; for CTTGATCCCAACTCAT (sugars k3 d10 k3, PS), 11%; for CTTTAAGTTCTCTGGC (sugars k3 d10 k3, PS), 64% and 82%.
For CTTTCCATTACGCAAC (sugars k3 d10 k3, PS) the value was 0%.
Turning to GAAAAAGCTTGTTCAC (sugars k3 d10 k3, PS), the target mRNA inhibition was determined as 28%.
On to GAAAACCCACTCTTGG (sugars k3 d10 k3, PS), for which the target mRNA inhibition amounted to 10%.
For GAAACCAGGAGTGCCA (sugars k3 d10 k3, PS) the value was 4%; for GAAACCTGGGCTCCCG (sugars k3 d10 k3, PS), 13%.
Take GAAACTCCCCCATTAT (sugars k3 d10 k3, PS): the target mRNA inhibition was 6%.
With GAAATCCCTTCAGGAT (sugars k3 d10 k3, PS) the figure was 14%.
On to GAACAAGTCCTACAAT (sugars k3 d10 k3, PS), for which the target mRNA inhibition came to 32%.
With GAACTCCACAGCTCTT (sugars k3 d10 k3, PS) the figure was 33%.
For GAATCTTACTTGATAA (sugars k3 d10 k3, PS) the value was 13%; for GAATTAAGACCAAGGG (sugars k3 d10 k3, PS), 36%.
For GACAAGCAATTAACTT (sugars k3 d10 k3, PS) the value was 66% and 53%; for GACAGTAGGTATAGTT (sugars k3 d10 k3, PS), -13%.
Consider GACCAAACTGCAGAGT (sugars k3 d10 k3, PS), for which the target mRNA inhibition turned out to be 3%.
In the case of GACCATCCCAAAATGC (sugars k3 d10 k3, PS), the target mRNA inhibition was 8%.
For GACGCAATTCTCCCTG (sugars k3 d10 k3, PS) the value was 27%; for GACTGAATATGAACCA (sugars k3 d10 k3, PS), 51% and 76%; for GACTTGGCAGTCTGCC (sugars k3 d10 k3, PS), 10%.
With GACTTTCTCCCCCAAC (sugars k3 d10 k3, PS) the figure was 6%.
In the case of GAGAAAGTGCCATGGT (sugars k3 d10 k3, PS), the target mRNA inhibition is 26%.
Take GAGATACCTGTCTGAG (sugars k3 d10 k3, PS): the target mRNA inhibition came to 40%.
For GAGCATTGGAGATCAG (sugars k3 d10 k3, PS) the value was 29%.
